From patent publication US7662404B2, “Transdermal delivery system for dried particulate or lyophilized peptides and polypeptides” (TransPharma Medical Ltd., priority 2002, dated 2010)
Like-named read-outs stand apart in the source and are kept apart here.

Test: Plasma hPTH (1-34) in pigs as a function of patch application time (Example 14)
Format: in vivo
Conditions: male, large white, pig; for Cmax: read-out: Cmax AVG ± SD; for F rel: topical or ocular, compared to SC, read-out: % BIO AVG ± SD
Experimental: A printed patch containing 90 μg of hPTH (1-34) was placed over the application area and covered with Tegaderm. The patch was removed 1 hour, 1.5 hours, 2 hours or 8 hours after application, and the skin site was gently wiped to remove residual peptide. As a control group, pigs were injected s.c. with 0.2 ml FORTEO® (hPTH (1-34) purchased from Ely Lilly, Indianapolis, Ind., USA; 250 μg/ml) diluted to 100 μg/ml in the dorsal neck area (final dose was 20 μg per animal). Formulation: hPTH (1-34) (10 mg/ml): Trehalose (110 mg/ml) in 50 mM acetic acid, pH=4.
To determine the amount of hPTH(1-34) delivered to the blood of the treated pigs, blood samples were withdrawn at the indicated time points and the amount of hPTH(1-34) was measured by an ELISA kit (Immutopics, San-Clemente, Calif.).

CC[C@H](C)[C@H](NC(=O)[C@H](CCC(=O)O)NC(=O)[C@H](CO)NC(=O)[C@@H](NC(=O)[C@@H](N)CO)C(C)C)C(=O)N[C@@H](CCC(N)=O)C(=O)N[C@@H](CC(C)C)C(=O)N[C@@H](CCSC)C(=O)N[C@@H](Cc1cnc[nH]1)C(=O)N[C@@H](CC(N)=O)C(=O)N[C@@H](CC(C)C)C(=O)NCC(=O)N[C@@H](CCCCN)C(=O)N[C@@H](Cc1cnc[nH]1)C(=O)N[C@@H](CC(C)C)C(=O)N[C@@H](CC(N)=O)C(=O)N[C@@H](CO)C(=O)N[C@@H](CCSC)C(=O)N[C@@H](CCC(=O)O)C(=O)N[C@@H](CCCN=C(N)N)C(=O)N[C@H](C(=O)N[C@@H](CCC(=O)O)C(=O)N[C@@H](Cc1c[nH]c2ccccc12)C(=O)N[C@@H](CC(C)C)C(=O)N[C@@H](CCCN=C(N)N)C(=O)N[C@@H](CCCCN)C(=O)N[C@@H](CCCCN)C(=O)N[C@@H](CC(C)C)C(=O)N[C@@H](CCC(N)=O)C(=O)N[C@@H](CC(=O)O)C(=O)N[C@H](C(=O)N[C@@H](Cc1cnc[nH]1)C(=O)N[C@@H](CC(N)=O)C(=O)N[C@@H](Cc1ccccc1)C(=O)O)C(C)C)C(C)C [hPTH (1-34)]
Cmax (90 ug, TD 90 ug printed patch, removed after 1 h): 0.0772 ± 0.0358 ng/mL
Cmax (90 ug, TD 90 ug printed patch, removed after 1.5 h): 0.179 ± 0.0658 ng/mL
Cmax (90 ug, TD 90 ug printed patch, removed after 2 h): 0.137 ± 0.0431 ng/mL
Cmax (90 ug, TD 90 ug printed patch, removed after 8 h): 0.128 ± 0.0524 ng/mL
AUC (90 ug, TD 90 ug, 1 h): 0.232 ± 0.0418 ng·h/mL
AUC (90 ug, TD 90 ug, 1.5 h): 0.296 ± 0.0716 ng·h/mL
AUC (90 ug, TD 90 ug, 2 h): 0.272 ± 0.0545 ng·h/mL
AUC (90 ug, TD 90 ug, 8 h): 0.331 ng·h/mL
AUC (sc, 20 ug, SC 20 ug): 0.237 ± 0.0273 ng·h/mL
Cmax (sc, 20 ug, SC 20 ug): 0.289 ± 0.0525 ng/mL
F rel (90 ug, TD 90 ug, 1 h): 22.4 ± 6.97%
F rel (90 ug, TD 90 ug, 1.5 h): 28.5 ± 9.36%
F rel (90 ug, TD 90 ug, 2 h): 26.2 ± 8.42%
F rel (90 ug, TD 90 ug, 8 h): 31.6 ± 9.03%
